Data reported in US20170042915A1, “LPA RECEPTOR MODULATORS FOR BROWN FAT DIFFERENTIATION” (The California Institute for Biomedical Research, priority 2015, published 2017).

Columns and labels:
[1] = system: Human Simpson-Golabi-Behmel syndrome (SGBS) preadipocytes; experiment: Brown cell differentiation of SGBS preadipocytes, high content imaging with anti-UCP1 and LipidTox staining; type: cell-based; conditions: concentration not given; for % Brown (adipocytes): day 11, LipidTox and UCP1 positive; for % White (adipocytes): day 11, LipidTox positive, below UCP1 threshold; for UCP1 fold: day 11, UCP1 staining
Protocol: OF Media included 1% Anti-Anti, […] biotin, […] panthotenate, and DMEM:F12 (1:1) media. Growth media included OF Media and 10% Fetal Bovine Serum. Differentiation induction media included OF Media, 10 μg/mL Insulin, 0.5 mM IBMX, and 1 μM Dexamethasone. The maintenance media included OF media and 10 μg/mL Insulin.
Human Simpson-Golabi-Behmel syndrome (SGBS) preadipocyteswere cultured in T225 flasks containing Growth Media. Upon passaging, cells were trypsinized, collected, spun down at 1250 g for 5 minutes at 20° C. to pellet. Cells were then resuspended in growth media before seeding cells at optimal density to maintain 75-80% confluency before passaging every 3-4 days.
Compounds at varying concentrations (starting at 20 uM with 1:3 dilution) were spotted onto 384-well black clear bottom plates (Greiner). The negative control consisted of DMSO while positive controls contained 2 uM of Rosiglitazone (Cayman). 50 μL of SGBS cells in induction were seeded directly on top of compound at a concentration of 1.1×10^5 cells/mL (˜5500 cells/well). After 4 days of induction, media was changed to 50 μL of maintenance media. Every 2-4 days after, media was changed again with 50 μL maintenance media until day 11.
After 11 days of differentiation, cells were fixed with 10 μL of 32% Paraformaldehyde for 10 minutes, followed by 10 μL of 7% Triton X-100 for another 10 minutes. Media was then aspirated down to 5 μL, 25 μL of Blocking Buffer 1 (2% BSA and 2.5% goat serum) was added, and plates were incubated for 1 hour. Plates were then aspirated down to 5 μL and 25 μL of primary antibody was added for 16 hour incubation. Primary antibody containing UCP1 (Sigma; Rabbit; 1:100) was diluted in Blocking Buffer 2 (2% BSA).
The next day, plates were washed 3 times with 1× PBS and 25 μL of secondary antibody were added. Secondary antibody containing Hoechst (1:6000), Alex Fluor 647 goat Anti-Rabbit (1:1000), and HCS LipidTOX Green Neutral Lipid Stain (Life Technologies; 1:800) were diluted in Blocking Buffer 2 (2% BSA). After 1 hour of incubation at room temperature, plates were washed 3 times with 1× PBS and left in 50 μL of PBS. Plates were then sealed and imaged.
Plates were imaged using CellInsight CX5 High Content Screening (HCS) Platform. Total cell number was detected using Hoechstand images were used to quantify total adipocytes (met defined threshold of lipidtox staining intensity).

[2] = system: SGBS preadipocytes; experiment: Brown adipocyte differentiation of SGBS preadipocytes with or without exogenous LPA; type: cell-based, human; conditions: day 11 SGBS adipocytes, compound during days 3-4 of induction, 10 μM LPA during days 1-4; FIG. 6A
Protocol: SGBS preadipocytes were plated in 384 plates as previously described but using induction media with or without the addition of 10 μM lysophosphatidic acid (LPA) for the first 2 days. On day 3, cells were treated with 10 μL of 6× concentration of compound 19 (final concentration was a 1:3 serial dilution starting at 20 μM) again with or without the addition of LPA. On day 5, media was changed to maintenance media until day 11. Staining and analysis of brown adipocytes based on UCP1 and lipid performed as described previously.

Structure (SMILES)	% Brown (adipocytes) ([1]; 1st of 3 sub-columns)	% Brown (adipocytes) ([1]; 2nd of 3 sub-columns)	% Brown (adipocytes) ([1]; 3rd of 3 sub-columns)	% White (adipocytes) ([1]; 1st of 3 sub-columns)	% White (adipocytes) ([1]; 2nd of 3 sub-columns)	% White (adipocytes) ([1]; 3rd of 3 sub-columns)	UCP1 fold ([1]; 1st of 3 sub-columns)	UCP1 fold ([1]; 2nd of 3 sub-columns)	UCP1 fold ([1]; 3rd of 3 sub-columns)	induction of brown adipocyte differentiation in the presence of exogenous LPA [2]
Cc1ccc(CNC(=O)C2CCN(S(=O)(=O)c3cc(-c4noc(C5CC5)n4)sc3C)CC2)o1 [Compound 1]	15%	27%	30%	6%	3%	4%	1.2x	2.6x	2.7x	
Cc1nc(-c2cc(S(=O)(=O)N3CCC(C(=O)NCCc4cccs4)CC3)c(C)s2)no1 [Compound 2]	29%	34%	34%	9%	8%	7%	2.2x	2.8x	2.9x	
Cc1nn(-c2ccccc2)c(C)c1S(=O)(=O)N1CCC(C(=O)NCCc2cccs2)CC1 [Compound 3]	20%	28%	30%	10%	8%	5%	1.6x	2.1x	2.9x	
Cc1sc(-c2noc(C3CCC3)n2)cc1S(=O)(=O)N1CCC(C(=O)NCc2ccco2)CC1 [Compound 4]	17%	22%	30%	5%	7%	5%	1.5x	1.6x	2.6x	
Cc1sc(-c2noc(C(C)C)n2)cc1S(=O)(=O)N1CCC(C(=O)NCc2cccs2)CC1 [Compound 5]	18%	22%	28%	3%	7%	7%	1.8x	1.8x	2.2x	
Cc1sc(-c2noc(C(C)C)n2)cc1S(=O)(=O)N1CCC(C(=O)N(C)Cc2ccco2)CC1 [Compound 6]	14%	23%	29%	6%	6%	5%	1.2x	1.7x	2.4x	
Cc1ccc(C)c(-c2csc(Nc3ccc(S(=O)(=O)Nc4cc(C)on4)cc3)n2)c1 [Compound 9]	18%	21%	31%	5%	6%	6%	1.5x	1.9x	2.7x	
COC(=O)c1ccc(NS(=O)(=O)c2ccc(-c3c(C)noc3C)cc2)cc1 [Compound 10]	17%	21%	29%	6%	8%	10%	1.5x	1.5x	2.0x	
Cc1ccc(NS(=O)(=O)c2ccc(-c3c(C)noc3C)cc2)cc1Cl [Compound 11]	18%	22%	24%	4%	6%	11%	1.7x	1.8x	1.7x	
COC(=O)CCSCc1ccc(-c2onc(C)c2NC(=O)OC(C)c2ccccc2Cl)cc1 (stereo not shown) [Compound 19]										attenuated induction of brown adipocyte differentiation
